# Source: patent US9505721B2, “Aromatic imide compound and method for producing same” (AZ ELECTRONIC MATERIALS (LUXEMBOURG) S.A.R.L., priority 2012, dated 2016)
# Tests used:
# [1] = Evaluation test of acid generating ability (UV irradiation, BCG pH probe); assay type: physicochemical; conditions: solution in dichloromethane with BCG, before irradiation
# Method: It was measured and evaluated by devices and a method (Evaluation test of acid generating ability) described below whether compounds obtained in Examples above acted as an acid generator under photoirradiation. The actual evaluation was conducted by use of Compound 1H. Devices used in evaluation are as follows.
# (§1) Measurement solvent: Dichloromethane
# (1) […] Compound 1H solution in dichloromethane was prepared and a few drops of 50% bromocresolgreen (BCG) solution in ethanol were added in this solution as pH probe.
# (2) The absorption spectrum of the solution was measured and it was checked that there are maximum absorption spectrums of Compound 1H in 300-400 nm and BOG in 630 nm. The color of this solution was dark blue.
# (3) The absorption spectrum of the solution was measured every 2 minutes while irradiating the solution described (2) above by UV lamp. At this time, the progress of attenuation concerning absorption maximum of BCG spectrum and the discoloration situation of dark blue color in the solution due to the pH decline of the system by generation of acids were observed by eyes.
# [2] = Ultraviolet and visible absorption spectrum (absorbance at i-, h- and g-line); assay type: physicochemical; conditions: measurement solvent dichloromethane
# Method: [3] Ultraviolet and visible absorption spectrum Types of machines: Varian Cary4000 manufactured by Agilent Technologies, Inc.
# as §1
# Absorption spectrums of compounds obtained in Examples 1 to 5 were measured. Furthermore, N-trifluoromethanesulfonyloxy-1,8-naphthalimide was used as a comparative example.
compound,measurement,setting,value
"O=C1c2cccc3c(C#Cc4ccccc4)ccc(c23)C(=O)N1OS(=O)(=O)C(F)(F)F [Compound 1H, N-trifluoromethanesulfonyloxy-4-phenylethynyl-1,8-naphthalimide]",maximum absorption spectrum,[1],300-400 nm
same,absorbance 365 nm (i-line),[2],0.4162
same,absorbance 405 nm (h-line),[2],0.5112
same,absorbance 436 nm (g-line),[2],0.01499
"O=C1c2cccc3cccc(c23)C(=O)N1OS(=O)(=O)C(F)(F)F [Comparative example, N-trifluoromethanesulfonyloxy-1,8-naphthalimide, reference compound]",absorbance 365 nm (i-line),[2],0.02925
same,absorbance 405 nm (h-line),[2],0.005575
same,absorbance 436 nm (g-line),[2],0.004642
